Assay results reported in US9320276B2, “N-hetarylmethyl pyrazolylcarboxamides” (BAYER INTELLECTUAL PROPERTY GMBH, priority 2010, dated 2016).
Blank lines part the entries; values can stand above or below the compound they belong to.

Experiments:
Alternaria solani = experiment: in vivo preventive test on Alternaria solani (tomato); details: 500 ppm of active ingredient, evaluated 7 days after inoculation
Procedure: Solvent: 49 parts by weight of N,N-dimethylformamide Emulsifier: 1 part by weight of Alkylarylpolyglycolether To produce a suitable preparation of active compound, 1 part by weight of active compound is mixed with the stated amounts of solvent and emulsifier, and the concentrate is diluted with water to the desired concentration. To test for preventive activity, young plants are sprayed with the preparation of active compound at the stated rate of application. One day after this treatment, the plants are inoculated with an aqueous spore suspension of Alternaria solani. The plants remain for one day in an incubation cabinet at approximately 22° C. and a relative atmospheric humidity of 100%. Then the plants are placed in an incubation cabinet at approximately 20° C. and a relative atmospheric humidity of 96%. The test is evaluated 7 days after the inoculation. 0% means an efficacy which corresponds to that of the untreated control while an efficacy of 100% means that no disease is observed.

Pyrenophora teres = experiment: in vivo preventive test on Pyrenophora teres (barley); details: 500 ppm of active ingredient, evaluated 7-9 days after inoculation
Procedure: Solvent: 49 parts by weight of N,N-dimethylformamide Emulsifier: 1 part by weight of alkylaryl polyglycol ether To produce a suitable preparation of active compound, 1 part by weight of active compound is mixed with the stated amounts of solvent and emulsifier, and the concentrate is diluted with water to the desired concentration. To test for preventive activity, young plants are sprayed with the preparation of active compound at the stated rate of application. One day after this treatment, the plants are inoculated with an aqueous spore suspension of Pyrenophora teres. The plants remain for 48 hours in an incubation cabinet at 22° C. and a relative atmospheric humidity of 100%. Then the plants are placed in a greenhouse at a temperature of approximately 20° C. and a relative atmospheric humidity of approximately 80%. The test is evaluated 7-9 days after the inoculation. 0% means an efficacy which corresponds to that of the untreated control while an efficacy of 100% means that no disease is observed.

[1] = logP by HPLC on reversed-phase column (EEC Directive 79/831 Annex V.A8); type: physicochemical; details: 40° C., 0.1% aqueous formic acid and acetonitrile, linear gradient 10% to 90% acetonitrile
Procedure: In table 1, the logP values were determined in accordance with EEC Directive 79/831 Annex V.A8 by HPLC (High Performance Liquid Chromatography) on a reversed-phase column (C 18), using the method described below: Temperature: 40° C.; Mobile phases: 0.1% aqueous formic acid and acetonitrile; linear gradient from 10% acetonitrile to 90% acetonitrile. Calibration was carried out using unbranched alkan-2-ones (comprising 3 to 16 carbon atoms) with known logP values (determination of the logP values by the retention times using linear interpolation between two successive alkanones). lambda-max-values were determined using UV-spectra from 200 nm to 400 nm and the peak values of the chromatographic signals.

[2] = HPLC on reversed-phase column (C 18)

SMILES: CC(NC(=O)c1c(C(F)F)nn(C)c1Cl)c1cc2ccccc2s1 (racemic) [Example 81]
Efficacy (Alternaria solani): 100%
Efficacy (Pyrenophora teres): 90%
logP [1, 2]: 3.13

SMILES: CC(c1csc2ccccc12)N(C(=S)c1c(C(F)F)nn(C)c1F)C1CC1 (racemic) [Example 86]
Efficacy (Alternaria solani): 70%
Efficacy (Pyrenophora teres): 100%
logP [1, 2]: 4.44

SMILES: Cn1nc(C(F)F)c(C(=O)N(Cc2ccco2)C2CC2)c1F [Example 5]
Efficacy (Alternaria solani): 80%
Efficacy (Pyrenophora teres): 95%
logP [1, 2]: 2.32

SMILES: Cc1ccsc1CN(C(=O)c1c(C(F)F)nn(C)c1Cl)C1CCCC1 [Example 37]
Efficacy (Alternaria solani): 80%
logP [1, 2]: 3.61

SMILES: Cc1ccsc1CN(C(=O)c1c(C(F)F)nn(C)c1Cl)C1CC1 [Example 39]
Efficacy (Alternaria solani): 95%
Efficacy (Pyrenophora teres): 100%
logP [1, 2]: 3.02

SMILES: Cc1cc(C(C)N(C(=O)c2c(C(F)F)nn(C)c2Cl)C2CC2)c(C)s1 (stereo not drawn) [Example 49]
Efficacy (Alternaria solani): 80%
Efficacy (Pyrenophora teres): 95%
logP [1, 2]: 3.79

SMILES: Cn1nc(C(F)F)c(C(=O)N(Cc2ccc(Cl)nc2)C2CC2)c1F [Example 67]
Efficacy (Alternaria solani): 95%
Efficacy (Pyrenophora teres): 90%
logP [1, 2]: 2.25

SMILES: Cn1nc(C(F)F)c(C(=O)N(Cc2cc3ccccc3o2)C2CC2)c1Cl [Example 72]
Efficacy (Pyrenophora teres): 90%
logP [1, 2]: 3.21

SMILES: Cn1nc(C(F)F)c(C(=O)NC2(c3cc4ccccc4o3)CCCC2)c1F [Example 75]
Efficacy (Alternaria solani): 70%
Efficacy (Pyrenophora teres): 89%
logP [1, 2]: 3.52

SMILES: Cn1nc(C(F)F)c(C(=O)NCc2cc3ccccc3s2)c1Cl [Example 83]
Efficacy (Alternaria solani): 94%
logP [1, 2]: 2.92

SMILES: Cn1nc(C(F)F)c(C(=O)N(Cc2csc3ccccc23)C2CC2)c1Cl [Example 89]
Efficacy (Alternaria solani): 80%
Efficacy (Pyrenophora teres): 95%
logP [1, 2]: 3.41

SMILES: CC(c1cccc2ccsc12)N(C(=O)c1c(C(F)F)nn(C)c1Cl)C1CC1 (stereo not drawn) [Example 92]
Efficacy (Pyrenophora teres): 100%
logP [1, 2]: 3.61

SMILES: Cn1nc(C(F)F)c(C(=O)N(Cc2cccc3ccsc23)C2CC2)c1Cl [Example 94]
Efficacy (Alternaria solani): 95%
Efficacy (Pyrenophora teres): 95%
logP [1, 2]: 3.31

SMILES: Cn1nc(C(F)F)c(C(=O)NC2CCCc3sccc32)c1Cl (stereo not drawn) [Example 103]
Efficacy (Alternaria solani): 94%
logP [1, 2]: 2.90

SMILES: Cn1nc(C(F)F)c(C(=O)NC2CCCc3sccc32)c1F (stereo not drawn) [Example 104]
Efficacy (Alternaria solani): 94%
logP [1, 2]: 2.73

SMILES: Cn1nc(C(F)F)c(C(=O)N(Cc2cc(CC(C)(C)C)no2)C2CC2)c1F [Example 106]
Efficacy (Alternaria solani): 95%
Efficacy (Pyrenophora teres): 100%
logP [1, 2]: 3.17

SMILES: Cn1nc(C(F)F)c(C(=O)N(Cc2cc(CC(C)(C)C)no2)C2CC2)c1Cl [Example 107]
Efficacy (Pyrenophora teres): 80%
logP [1, 2]: 3.31

SMILES: Cn1nc(C(F)F)c(C(=O)N(Cc2c(Cl)cncc2Cl)C2CC2)c1Cl [Example 116]
Efficacy (Alternaria solani): 90%
Efficacy (Pyrenophora teres): 95%
logP [1, 2]: 2.64

SMILES: Cn1nc(C(F)F)c(C(=O)N(Cc2cnc(Cl)cc2Cl)C2CC2)c1F [Example 118]
Efficacy (Alternaria solani): 95%
Efficacy (Pyrenophora teres): 100%
logP [1, 2]: 2.73

SMILES: CC(c1cnc(Cl)c(Cl)c1)N(C(=O)c1c(C(F)F)nn(C)c1Cl)C1CC1 (stereo not drawn) [Example 120]
Efficacy (Alternaria solani): 90%
Efficacy (Pyrenophora teres): 100%
logP [1, 2]: 3.27

SMILES: CC(c1cnc(Cl)c(Cl)c1)N(C(=O)c1c(C(F)F)nn(C)c1F)C1CC1 (stereo not drawn) [Example 121]
Efficacy (Alternaria solani): 95%
Efficacy (Pyrenophora teres): 100%
logP [1, 2]: 3.11

SMILES: Cc1c(CN(C(=O)c2c(C(F)F)nn(C)c2Cl)C2CC2)sc2ccccc12 [Example 123]
Efficacy (Pyrenophora teres): 90%
logP [1, 2]: 3.74

SMILES: CC(c1cc(Cl)sc1Cl)N(C(=O)c1c(C(F)F)nn(C)c1Cl)C1CC1 (stereo not drawn) [Example 127]
Efficacy (Alternaria solani): 95%
Efficacy (Pyrenophora teres): 95%
logP [1, 2]: 4.24

SMILES: Cn1nc(C(F)F)c(C(=O)N(Cc2cc(Cl)nc3ccccc23)C2CC2)c1Cl [Example 139]
Efficacy (Pyrenophora teres): 90%
logP [1, 2]: 3.09

SMILES: Cn1nc(C(F)F)c(C(=O)N(Cc2csc3ccc(Cl)cc23)C2CC2)c1Cl [Example 144]
Efficacy (Pyrenophora teres): 100%
logP [1, 2]: 3.83

SMILES: CC(C)N(Cc1cnn(-c2ccc(Cl)cc2)c1)C(=O)c1c(C(F)F)nn(C)c1Cl [Example 151]
Efficacy (Pyrenophora teres): 75%
logP [1, 2]: 3.39

SMILES: Cn1nc(C(F)F)c(C(=O)N(Cc2cc(-c3ccc(Cl)cc3)no2)C2CC2)c1Cl [Example 154]
Efficacy (Pyrenophora teres): 100%
logP [1, 2]: 3.59

SMILES: Cn1nc(C(F)F)c(C(=O)N(Cc2cc3ccccc3n2-c2ccccc2)C2CC2)c1Cl [Example 156]
Efficacy (Pyrenophora teres): 90%
logP [1, 2]: 4.13

SMILES: Cn1nc(C(F)F)c(C(=O)N(Cc2cc(C(F)(F)F)nc3ccccc23)C2CC2)c1Cl [Example 160]
Efficacy (Pyrenophora teres): 90%
logP [1, 2]: 3.72

SMILES: Cn1nc(C(F)F)c(C(=O)N(Cc2ccnc3cc(Cl)cc(Cl)c23)C2CC2)c1Cl [Example 162]
Efficacy (Pyrenophora teres): 94%
logP [1, 2]: 3.57

SMILES: Cn1nc(C(F)F)c(C(=O)N(Cc2cc(-c3cc(F)c(F)c(F)c3)no2)C2CC2)c1Cl [Example 166]
Efficacy (Pyrenophora teres): 90%
logP ([1]; HPLC, reversed-phase column (C 18)): 3.64

Continued, in another order:

logP [1, 2]: 2.98
SMILES: CC(NC(=O)c1c(C(F)F)nn(C)c1F)c1cc2ccccc2s1 (racemic) [Example 82]
Efficacy (Alternaria solani): 100%
Efficacy (Pyrenophora teres): 90%

logP [1, 2]: 2.05
SMILES: CCN(Cc1nonc1C)C(=O)c1c(C(F)F)nn(C)c1F [Example 28]
Efficacy (Alternaria solani): 90%

logP [1, 2]: 2.44
SMILES: Cc1ccsc1CN(C)C(=O)c1c(C(F)F)nn(C)c1F [Example 42]
Efficacy (Alternaria solani): 70%

logP [1, 2]: 2.73
SMILES: Cn1nc(C(F)F)c(C(=O)NCc2csc3ccccc23)c1F [Example 88]
Efficacy (Alternaria solani): 78%

logP [1, 2]: 2.68
SMILES: Cn1nc(C(F)F)c(C(=O)N(Cc2nc3ccccc3s2)C2CC2)c1F [Example 98]
Efficacy (Alternaria solani): 80%
Efficacy (Pyrenophora teres): 100%

logP [1, 2]: 2.17
SMILES: CN(Cc1ccc2nsnc2c1)C(=O)c1c(C(F)F)nn(C)c1F [Example 100]
Efficacy (Alternaria solani): 95%

logP [1, 2]: 2.45
SMILES: CC(C)Oc1ccc(CN(C)C(=O)c2c(C(F)F)nn(C)c2F)cn1 [Example 102]
Efficacy (Pyrenophora teres): 70%

logP [1, 2]: 2.75
SMILES: CN(Cc1cc(CC(C)(C)C)no1)C(=O)c1c(C(F)F)nn(C)c1F [Example 105]
Efficacy (Alternaria solani): 95%
Efficacy (Pyrenophora teres): 100%

logP [1, 2]: 2.40
SMILES: CN(Cc1cnn(-c2ccccc2)c1)C(=O)c1c(C(F)F)nn(C)c1Cl [Example 108]
Efficacy (Alternaria solani): 90%

logP [1, 2]: 2.26
SMILES: CN(Cc1cnn(-c2ccccc2)c1)C(=O)c1c(C(F)F)nn(C)c1F [Example 109]
Efficacy (Alternaria solani): 95%
Efficacy (Pyrenophora teres): 100%

logP [1, 2]: 2.51
SMILES: CN(Cc1cc(-c2ccccc2)no1)C(=O)c1c(C(F)F)nn(C)c1F [Example 110]
Efficacy (Pyrenophora teres): 100%

logP [1, 2]: 2.92
SMILES: Cn1nc(C(F)F)c(C(=O)N(Cc2cc(-c3ccccc3)no2)C2CC2)c1F [Example 111]
Efficacy (Alternaria solani): 95%
Efficacy (Pyrenophora teres): 100%

logP [1, 2]: 3.04
SMILES: Cn1nc(C(F)F)c(C(=O)N(Cc2cc(-c3ccccc3)no2)C2CC2)c1Cl [Example 112]
Efficacy (Pyrenophora teres): 95%

logP [1, 2]: 2.58
SMILES: CN(Cc1nc(-c2ccccc2)no1)C(=O)c1c(C(F)F)nn(C)c1F [Example 114]
Efficacy (Alternaria solani): 95%
Efficacy (Pyrenophora teres): 95%

logP [1, 2]: 2.52
SMILES: CN(Cc1cscc1Br)C(=O)c1c(C(F)F)nn(C)c1F [Example 133]
Efficacy (Alternaria solani): 70%
Efficacy (Pyrenophora teres): 90%

logP [1, 2]: 2.92
SMILES: Cn1nc(C(F)F)c(C(=O)N(Cc2cc(Cl)nc3ccccc23)C2CC2)c1F [Example 138]
Efficacy (Pyrenophora teres): 100%

logP [1, 2]: 3.48
SMILES: CN(Cc1sc2ccccc2c1Cl)C(=O)c1c(C(F)F)nn(C)c1F [Example 142]
Efficacy (Alternaria solani): 80%
Efficacy (Pyrenophora teres): 100%

logP [1, 2]: 2.77
SMILES: Cc1nc(-c2ccccc2)sc1CN(C)C(=O)c1c(C(F)F)nn(C)c1F [Example 149]
Efficacy (Alternaria solani): 80%
Efficacy (Pyrenophora teres): 80%

logP [1, 2]: 3.58
SMILES: Cn1nc(C(F)F)c(C(=O)N(Cc2cc(C(F)(F)F)nc3ccccc23)C2CC2)c1F [Example 159]
Efficacy (Pyrenophora teres): 100%

logP [1, 2]: 3.11
SMILES: CN(Cc1cc(-c2cc(F)c(F)c(F)c2)no1)C(=O)c1c(C(F)F)nn(C)c1F [Example 164]
Efficacy (Pyrenophora teres): 100%
